In patent US8138188B2, “Melanocortin type 4 receptor agonist piperidinoylpyrrolidines” (Pfizer Inc., priority 2006, dated 2012) one finds EC50, microsomal CLint and inhibition data, which are given here for one compound.

The target in one data set is MC4 receptor (Homo sapiens, UniProt P32245). The experiment in a line: MC4 functional agonist potency (EC50), assay protocol E of US2005/0176772 / WO 2005/077935. The class given is cell-based. Particulars: functional potency at the MC4 receptor. As to the method: The compounds of formula (I) of the present invention have utility as MCR4 agonists in the treatment of various disease states.
MC5 and MC4 EC50 activity was determined as described by assay protocols D and E, respectively, in US2005/0176772 (pages 28-30).

The target in another data set is T1, human MC3 receptor (Homo sapiens, UniProt P41968).
T1 construct: stably transfected with full length cDNA encoding human MC1 or MC3 receptors; expressed in transfected cells; host or cells: Chinese hamster ovary cell line (MC3; 'respectively')
The experiment in a line: In vitro agonist potency (EC50) against melanocortin receptor type 3, cAMP in recombinant cell line. It counts as cell-based. The following applies: cell line stably transfected with human MC3, 1 hour at 37° C. As for the experimental part: Measurement of In Vitro Agonist Potency (EC50) of Compounds Against Melanocortin Receptors Type 1 and 3 (MC1 and MC3).
Activation of melanocortin (MC) receptors by agonists results in activation of intracellular adenylate cyclase enzymes that synthesise the second messenger signalling molecule, adenosine 3′,5′-cyclic monophosphate (cAMP). Changes in cAMP levels following treatment of recombinant MC1 and MC3 cell lines with test compound were measured and an MC1 and MC3 potency estimate (EC50) calculated as follows: […]
Human embryonic kidney (HEK) or Chinese hamster ovary cell lines stably transfected with full length cDNA encoding human MC1 or MC3 receptors, respectively, were established using standard molecular biology methods. Test compounds were dissolved in dimethyl sulfoxide (DMSO) at 4 mM. 11 point half log unit increment dilution series of test compound, typically starting at 50 uM were prepared in a buffer comprised of phosphate buffered saline (PBS), 2.5% DMSO and 0.05% pluronic F-127 surfactant. Freshly cultured cells at 80-90% confluence were harvested and re-suspended in Dulbecco's Modified Eagle's Medium (DMEM). Cells (10,000 for MC3, 20,000 for MC1) were added to the test compound dilution series in a 384 well assay plate and incubated for 1 hour at 37° C. The relative cAMP concentration in each well was then measured using a β-galactosidase enzyme fragment complementation method purchased in kit form as the Discoverx cAMP II kit from GE Healthcare/Amersham Biosciences UK. In the case of MC1,3-Isobutyl-1-methylxanthine (IBMX) at a concentration of 750 μM was included in DMEM as the cells were re-suspended for assay. […] Sigmoidal curves were fitted to plots of log10 inhibitor concentration vs percent effect using a custom made software application called SIGHTS and EC50 estimates determined by the software as the concentration of test compound giving an effect half way between the bottom and top assymptopes of the sigmoidal dose response curve. Each experiment included an EC50 determination for alpha melanocyte stimulating hormone, which was used as a standard to track assay consistency and allow fair comparison between EC50 estimates obtained in different experiments.

Data set [1] in a line: In vitro metabolism rate determination, human liver microsome (HLM) assay. The class given is in vitro ADME. The following applies: human liver microsomes, substrate 1 μM; read-out: HLM (intrinsic clearance). The text has this: (§1) In vitro Metabolism Rate Determination (Human Liver Microsome (HLM); Rat Liver Microsome (RLM) Assay)
(§2) Many drugs are metabolised by the cytochrome P450 mono-oxygenase system. This enzyme is found in high concentrations in the liver and is bound to the endoplasmic reticulum of the hepatocyte. The enzyme system can be obtained in semi-purified state by the preparation of the hepatic microsomal fractions. Determining a compound's in vitro half-life in such a system provides a useful indicator of metabolic stability.
(§3) Methodology For In Vitro Rate Determination Using Hepatic & Supermix Microsomes
(§4) The method outlined below is for a total incubation volume of 1.5 ml.
(§5) 1. The following mixture is prepared in a test tube:
(§6) 2. Defrost microsomes at room temperature and add sufficient microsomes to give a final concentration of 0.5 nmol cytochrome P450/ml of incubation e.g. for a 1.5 ml incubation, the volume of microsomes to be added is:
(§7) [formula] 3. Add sufficient MilliQ water to give a total incubation volume of 1.425 ml. 4. Remove 237.5 μl of incubation mix and place in test tube for PNA positive control. Add 2.5 μl of PNA solution, whirlimix, and put tube into a rack in the thermostatically controlled shaking water bath 5. Remove 100 μl for no substrate control and dispense in test tube. Place test tube in a rack in the thermostatically controlled shaking water bath. 6. Add substrate to the incubation. The substrate should be at an initial concentration of 1 μM. The volume of substrate required in the remaining 1.162.5 ml incubation is calculated as follows:
(§8) [formula] • N.B. The volume of organic solvent added should not exceed 0.1% of the total incubation volume. 7. Remove 100 μl of incubation mix into test tube for no cofactor control. Whirlimix and put into a rack in the thermostatically controlled shaking water bath. 8. Pre-incubate the tube containing the incubation mix, also positive control and no cofactor tubes in the thermostatically controlled shaking water bath set at 37° C. for approx 5 min. 9. Add NADP to initiate reaction (75 μl to each 1.162.5 ml incubation mix, 12.5 μl to positive control tube and 5 μl to no substrate tube) and take first time point immediately. The PNA positive control, no cofactor control and no substrate tubes are incubated for the total incubation time. 10. Remove 100 μl aliquots up to 9 different sampling points from 0 to 60 min (usually 0, 3, 5, 10, 15, 20, 30, 45 & 60 min) and terminate reaction. Longer incubation times can be used, but, after 120 min the microsomes deteriorate. The reaction may be terminated by addition of organic solvent, acid or base. At the end of the incubation process the no cofactor and no substrate controls in a similar manner i.e. terminate with the same reagent. 11. PNA Positive Control Procedure: • After the final sample has been taken, remove the positive control and add 1 ml 20% TCA to this tube. Also prepare a tube containing 250 μl of a PNP standard at 50 μM, and add 1 ml 20% TCA. Whirlimix both tubes and leave for approx 5 min to allow the protein to precipitate. • Centrifuge both tubes for approx 5 min in an instrument set at 3500 rpm. Remove 1 ml of supernatant and place into clean test tubes, discard the remainder. • Add 1 ml 10M NaOH to the supernatant, whirlimix, and leave to stand for approx min. Blank spectrophotometer with distilled water at 400 nm then measure absorbance of the PNP standard against distilled water. The microsomal 4-nitroanisole O-demethylase activity is calculated as follows: Calculation of Results
(§9) [formula] • The activity value from the incubation MUST be equal to or greater than 85% of the mean value of the batch used for the incubation to be valid. If this criteria is not met, then the incubation must be repeated. 11. Analyse samples (including no cofactor and no substrate control) by a specific assay for the substrate to determine the disappearance kinetics. Analysis Of Data […]

A short description of data set [2]: In vitro metabolism rate determination, rat liver microsome (RLM) assay. It counts as in vitro ADME. The following applies: rat liver microsomes, substrate 1 μM; read-out: RLM (intrinsic clearance).
Excerpt: as §1, §2, §3, §4, §5, §6, §7, §8, §9

In another data set the target is T2, CYP3A4 (Homo sapiens, UniProt P08684).
T2 construct: utilizes human liver microsomes together with isoform-specific clinical drug probes; from tissue; host or cells: human liver microsomes
The experiment in a line: High density drug-drug interactions (DDI) 3 μM cocktail screen in human liver microsomes. It counts as in vitro ADME. The following applies: 3 uM test compound, pooled human liver microsomes, probe midazolam 2 μM; read-out: % Inhibition of 3A4 metabolism at 3 uM. As for the experimental part: High Density Drug-Drug Interactions (DDI) 3 μM Cocktail Screen
A drug interaction is a situation in which a substance affects the activity of another drug, i.e. the effects are increased or decreased, or together they produce a new effect that neither produces on its own. Drug interactions may be the result of various processes but a relatively common one is where one drug affects the pharmacokinetics of another by inhibiting the cytochrome P450 that metabolises it. Because of the importance of these phenomena, assessment of the DDI potential for new chemical entities (NCEs) is considered important early on in the drug discovery process.
The DDI cocktail screen in human liver microsomes (HLM) is run in a fully automated fashion and the aim of the screen is to provide a single-point assessment of the DDI potential of new chemical entity (NCE; tested at 3 μM) against the 4 primary cytochrome P450 enzymes, 1A2, 2D6, 2C9 and 3A4.
The substrate cocktail approach for P450 DDI utilizes human liver microsomes together with isoform-specific clinical drug probes and permits the simultaneous measurement of the inhibition of P450 1A2, 2C9, 2D6 & 3A4 activities in a single incubation. This is run in high throughput with simultaneous detection of metabolites by LC-MS/MS. This method has been thoroughly tested and evaluated using standard compounds.
Appearance of the metabolite of each substrate is measured over time in the presence and absence of the NCE (test compound/inhibitor) at a concentration of 3 μM. The compounds are assessed for their inhibitory potential as a percentage value and interpreted using the following scheme.

T2 sequence (P08684 whole entry, canonical isoform): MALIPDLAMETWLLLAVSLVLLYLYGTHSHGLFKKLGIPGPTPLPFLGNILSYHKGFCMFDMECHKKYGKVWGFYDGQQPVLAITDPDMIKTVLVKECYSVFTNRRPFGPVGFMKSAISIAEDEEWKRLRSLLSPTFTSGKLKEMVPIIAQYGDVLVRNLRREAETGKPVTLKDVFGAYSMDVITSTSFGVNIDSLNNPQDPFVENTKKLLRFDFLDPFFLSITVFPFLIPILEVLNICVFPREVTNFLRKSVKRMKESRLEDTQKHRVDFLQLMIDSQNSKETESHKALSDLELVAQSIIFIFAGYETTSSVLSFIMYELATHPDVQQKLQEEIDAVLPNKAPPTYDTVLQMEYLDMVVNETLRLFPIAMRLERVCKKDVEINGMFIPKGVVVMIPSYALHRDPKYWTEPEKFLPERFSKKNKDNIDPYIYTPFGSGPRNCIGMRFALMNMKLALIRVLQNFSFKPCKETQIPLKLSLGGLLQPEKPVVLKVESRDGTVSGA
Sequence of MC4 receptor (P32245 whole entry): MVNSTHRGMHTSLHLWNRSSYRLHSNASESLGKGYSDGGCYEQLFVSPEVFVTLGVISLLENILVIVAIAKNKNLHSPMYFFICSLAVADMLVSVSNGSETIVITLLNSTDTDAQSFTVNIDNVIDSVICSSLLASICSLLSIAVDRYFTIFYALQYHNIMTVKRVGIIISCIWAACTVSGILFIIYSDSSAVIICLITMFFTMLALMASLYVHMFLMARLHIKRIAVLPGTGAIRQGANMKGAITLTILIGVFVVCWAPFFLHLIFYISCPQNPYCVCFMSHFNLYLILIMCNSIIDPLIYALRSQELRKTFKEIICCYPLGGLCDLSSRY
T1 sequence (P41968 whole entry): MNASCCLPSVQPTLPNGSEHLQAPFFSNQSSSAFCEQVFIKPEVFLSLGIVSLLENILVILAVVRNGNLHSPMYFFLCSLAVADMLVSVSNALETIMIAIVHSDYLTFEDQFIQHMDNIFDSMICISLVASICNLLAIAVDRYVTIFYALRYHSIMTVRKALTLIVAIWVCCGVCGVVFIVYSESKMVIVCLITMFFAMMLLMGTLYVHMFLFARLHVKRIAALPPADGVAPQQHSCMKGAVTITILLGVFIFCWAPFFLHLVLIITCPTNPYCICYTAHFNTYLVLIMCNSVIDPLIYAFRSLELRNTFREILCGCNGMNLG

`C[C@@H]1CN(C(=O)[C@@H]2CN(c3ccc(Cl)nn3)C[C@H]2c2ccc(Cl)cn2)C[C@H](C)[C@@]1(O)c1ccc(F)cc1` [Example 3, (3R,4R,5S)-1-{[(3S,4S)-1-(6-Chloropyridazin-3-yl)-4-(5-chloropyridin-2-yl)pyrrolidin-3-yl]carbonyl}-4-(4-fluorophenyl)-3,5-dimethylpiperidin-4-ol]: the EC50 on MC4 receptor worked out at 11.9 nM; on human MC3 receptor, 16.4 nM. Besides, the microsomal CLint at 1 μM in data set [1] is below 7 µL/min/mg; in data set [2], below 19.8 µL/min/mg. Further, at CYP3A4, the inhibition at 3 μM is 60%.
